What was measured:
[1] = test system: Klebsiella pneumoniae ATCC 49619; assay: MIC determination (CLSI broth microdilution); format: cell-based; conditions: Gram-negative, ATCC 49619, 18 h
Procedure: (§1) Wild-type Escherichia coli K-12 AG100 strain [argE3 thi-1 rpsL xyl mtl Δ(gal-uvrB) supE44] expressing the AcrAB TolC EP at its basal level and Klebsiella pneumoniae ATCC 49,619 Gram-negative strains were studied in the experiments. Staphylococcus aureus ATCC 43,300 methicillin-resistant (MRSA) strain and Enterococcus faecalis ATCC 29,212 strain were used as Gram-positive strains in the assays. MIC values of the complexes were determined in 96-well plates based on the Clinical and Laboratory Standard Institute guidelines (CLSI guidelines). The stock solutions of the compounds (dissolved in DMSO using 10 mM concentration) were diluted in 100 μL of Mueller Hinton Broth. Then 10^−4 dilution of an overnight bacterial culture in 100 μL of medium was added to each well, with the exception of the medium control wells.

[2] = test system: Staphylococcus aureus ATCC 43300 methicillin-resistant (MRSA); assay: MIC determination (CLSI broth microdilution); format: cell-based; conditions: Gram-positive, MRSA ATCC 43300, 18 h
Procedure: as §1

[3] = test system: Enterococcus faecalis ATCC 29212; assay: MIC determination (CLSI broth microdilution); format: cell-based; conditions: Gram-positive, ATCC 29212, 18 h
Procedure: as §1

[4] = test system: Escherichia coli K-12 AG100; assay: MIC determination (CLSI broth microdilution); format: cell-based; conditions: Gram-negative, AG100, 18 h
Procedure: as §1

[5] = test system: Colo 320 multidrug resistant human colonic adenocarcinoma cell line; assay: MTT cytotoxicity assay, Colo 320; format: cell-based; conditions: for IC50: 72 h, MTT; for S.I. MRC-5/Colo 320: ratio of the indicated IC50 values
Procedure: (§2) Human colonic adenocarcinoma cell lines Colo 205 doxorubicin-sensitive (ATCC-CCL-222) and Colo 320/MDR-LRP multidrug resistant expressing ABCB1 (MDR1)-LRP (ATCC-CCL-220.1) were purchased from LGC Promochem (Teddington, UK). […] Cell lines were incubated at 37 °C, in a 5% CO2, 95% air atmosphere. The semi-adherent human colon cancer cells were detached with Trypsin-Versene (EDTA, Sigma, Steinheim, Germany) solution for 5 min at 37 °C. MRC-5 human embryonal lung fibroblast cell lines (ATCC CCL-171) were purchased from LGC Promochem. […] The cell lines were incubated at 37 °C, in a 5% CO2, 95% air atmosphere.
(§3) In the study MRC-5 non-cancerous human embryonic lung fibroblast and human colonic adenocarcinoma cell lines (doxorubicin-sensitive Colo 205 and multidrug resistant Colo 320 colonic adenocarcinoma cells) were used to determine the effect of compounds on cell growth. The effects of increasing concentrations of compounds on cell growth were tested in 96-well flat-bottomed microtiter plates. The stock solutions of the compounds were prepared in DMSO, and in the final samples the DMSO content was always lower than 1%. The compounds were diluted in a volume of 100 μL of medium.
(§4) In case of the colonic adenocarcinoma cells, the two-fold serial dilutions of compounds were prepared in 100 μL of RPMI 1640, horizontally. The semi-adherent colonic adenocarcinoma cells were treated with Trypsin-Versene (EDTA) solution. They were adjusted to a density of 1 × 10^4 cells in 100 μL of RPMI 1640 medium, and were added to each well, with the exception of the medium control wells. The final volume of the wells containing compounds and cells was 200 μL.
(§5) The culture plates were incubated at 37 °C for 72 h; at the end of the incubation period, 20 μL of MTT (Sigma) solution (from a stock solution of 5 mg/mL) were added to each well. After incubation at 37 °C for 4 h, 100 μL of sodium dodecyl sulfate (SDS) (Sigma) solution (10% in 0.01 M HCl) were added to each well and the plates were further incubated at 37 °C overnight. Cell growth was determined by measuring the optical density (OD) at 540/630 nm with Multiscan EX ELISA reader (Thermo Labsystems, Cheshire, WA, USA). […] Curves were fitted by Prism software (GraphPad Software Inc., San Diego, CA, USA) using the sigmoidal dose-response model (comparing variable and fixed slopes). The IC50 values were obtained from at least 3 independent experiments.

[6] = test system: Colo 205 chemo-sensitive human colonic adenocarcinoma cell line; assay: MTT cytotoxicity assay, Colo 205; format: cell-based; conditions: for IC50: 72 h, MTT; for S.I. MRC-5/Colo 205: ratio of the indicated IC50 values
Procedure: as §2, §3, §4, §5

[7] = target: T1, Human serum albumin (HSA) (Homo sapiens, UniProt P02768); assay: HSA binding by spectrofluorometry (Trp-214 quenching, site marker displacement); conditions: pH 7.40 PBS’, 25 °C; for logKWF’ (warfarin displacement): site I marker; for logKDG’ (dansyl glycine displacement): site II marker
T1 construct: purchased Sigma-Aldrich A8763
Procedure: Steady-state spectrofluorometric measurements were also performed to assay the binding interactions at the binding pockets of HSA located in the IIA and IIIA subdomains. His residues are found nearby at both binding sites, and covalent binding is possible here. Trp-214 quenching and site marker displacement experiments were conducted as reported in our former works. Warfarin (WF) was applied as site I marker and dansyl glycine (DG) was used for site II. Representative emission spectra for Trp-214 quenching in case of 1 are shown in Figure 8a, and changes in the intensities at the emission maximum are compared for 1–4 in Figure 8b. Based on the spectral changes conditional binding constants were computed for both of the quenching and site marker displacement assays (Table 5).
Complex 2 is hardly bound at site I, while binding of 3 and 1 is considered as a strong interaction here.
Fluorescence studies were performed using a Fluoromax (Horiba Jobin Yvon, Kyoto, Japan) fluorometer in 1 × 1 cm quartz cells. All samples contained 1 μM HSA and various HSA-to-metal complex ratios (up to complex:HSA = 1:40) were used. Site marker displacement experiments were also carried out, and in the samples the HSA-to-site marker (WF or DG) ratio was 1:1 and the concentration of the complex compounds was varied. For the Trp quenching, the WF and DG displacement experiments λEX = 295, 310 and 335 nm was applied and emission spectra were recorded spectra in the wavelength range 310–450, 320–500 and 420–600 nm, respectively. Computer program HypSpec was utilized for calculation of binding constants (K’) for HSA–metal complex adducts similar to the approach described in our former works. Calculations were always based on data obtained from at least two independent measurements.

T1 sequence (P02768 25-609): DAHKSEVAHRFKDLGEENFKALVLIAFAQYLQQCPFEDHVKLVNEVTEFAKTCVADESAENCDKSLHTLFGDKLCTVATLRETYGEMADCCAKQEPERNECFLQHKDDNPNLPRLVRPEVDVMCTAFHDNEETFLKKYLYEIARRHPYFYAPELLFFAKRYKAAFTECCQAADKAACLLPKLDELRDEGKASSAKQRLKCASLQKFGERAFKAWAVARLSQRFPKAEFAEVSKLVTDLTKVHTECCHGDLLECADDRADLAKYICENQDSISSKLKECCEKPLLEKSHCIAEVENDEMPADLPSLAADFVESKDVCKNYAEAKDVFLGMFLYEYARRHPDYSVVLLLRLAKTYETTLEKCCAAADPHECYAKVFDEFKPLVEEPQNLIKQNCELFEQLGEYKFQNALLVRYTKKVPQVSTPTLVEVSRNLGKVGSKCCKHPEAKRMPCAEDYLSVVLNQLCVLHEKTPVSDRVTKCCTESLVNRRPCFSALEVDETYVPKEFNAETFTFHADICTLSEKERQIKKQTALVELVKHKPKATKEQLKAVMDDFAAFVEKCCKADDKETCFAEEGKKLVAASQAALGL

With `Cc1ccc(C(C)C)cc1.O=C(C=C([O-])C(F)(F)F)c1ccc(Cl)cc1.[Cl-].[Ru+2]` [complex 7] the “MIC K. pneumoniae” value [1] was greater than 100 µM, the “MIC S. aureus” value [2] was 50 µM and the “MIC E. faecalis” value [3] was 50 µM. The “MIC E. coli” value [4] was greater than 100 µM, the IC50 [5] was 29.1 ± 2 µM and the “S.I. MRC-5/Colo 320” value [5] was 0.91. For the same compound, the IC50 [6] was 52.4 ± 2.7 µM and the “S.I. MRC-5/Colo 205” value [6] was 0.51.

With `Cc1ccc(C(C)C)cc1.[Cl-].[O-]n1ccc2ccccc2c1=S.[Ru+2]` [complex 3] the “logKWF’ (warfarin displacement)” value [7] was 5.98 ± 0.03, the “logKDG’ (dansyl glycine displacement)” value [7] was 5.61 ± 0.03 and the “logKQ’ (Trp-214 quenching)” value ([7]; titration, site I) was 6.18 ± 0.03. The “MIC K. pneumoniae” value [1] was greater than 100 µM, the “MIC S. aureus” value [2] was 12.5 µM and the “MIC E. faecalis” value [3] was 12.5 µM. For the same compound, the “MIC E. coli” value [4] was greater than 100 µM, the IC50 [5] was 10.7 ± 1.5 µM and the “S.I. MRC-5/Colo 320” value [5] was 0.71. The IC50 [6] was 17.3 ± 3.1 µM and the “S.I. MRC-5/Colo 205” value [6] was 0.44.

`C1N2CN3CN1CP(C2)C3.Cc1ccc(C(C)C)cc1.F[P-](F)(F)(F)(F)F.[O-]n1ccccc1=S.[Ru+2]` [complex 2] was tested, and the “logKQ’ (Trp-214 quenching)” value ([7]; titration, site I) was less than 4, the “MIC K. pneumoniae” value [1] was greater than 100 µM and the “MIC S. aureus” value [2] was greater than 100 µM. For the same compound, the “MIC E. faecalis” value [3] was greater than 100 µM, the “MIC E. coli” value [4] was greater than 100 µM and the IC50 [5] was greater than 100 µM. It also gave an IC50 [6] greater than 100 µM.

`C1N2CN3CN1CP(C2)C3.Cc1ccc(C(C)C)cc1.F[P-](F)(F)(F)(F)F.[O-]n1ccc2ccccc2c1=S.[Ru+2]` [complex 4] was tested, and the “logKQ’ (Trp-214 quenching)” value ([7]; batch, 48 h equilibration) was 5.39 ± 0.03, the “logKQ’ (Trp-214 quenching)” value ([7]; titration, site I) was 4.46 ± 0.03 and the “MIC K. pneumoniae” value [1] was greater than 100 µM. For the same compound, the “MIC S. aureus” value [2] was greater than 100 µM, the “MIC E. faecalis” value [3] was greater than 100 µM and the “MIC E. coli” value [4] was greater than 100 µM. For the same compound, the IC50 [5] was greater than 100 µM, the “S.I. MRC-5/Colo 320” value [5] was less than 0.81 and the IC50 [6] was greater than 100 µM. For the same compound, the “S.I. MRC-5/Colo 205” value [6] was less than 0.81.

For `C1N2CN3CN1CP(C2)C3.Cc1ccc(C(C)C)cc1.F[P-](F)(F)(F)(F)F.O=C(C=C([O-])C(F)(F)F)c1ccc(Cl)cc1.[Ru+2]` [complex 8], the “MIC K. pneumoniae” value [1] was greater than 100 µM, the “MIC S. aureus” value [2] was 50 µM and the “MIC E. faecalis” value [3] was 100 µM. For the same compound, the “MIC E. coli” value [4] was greater than 100 µM, the IC50 [5] was 47.8 ± 7.3 µM and the “S.I. MRC-5/Colo 320” value [5] was 0.37. The IC50 [6] was 80.6 ± 1.1 µM and the “S.I. MRC-5/Colo 205” value [6] was 0.22.

For `Cc1ccc(C(C)C)cc1.[Cl-].[O-]n1ccccc1=S.[Ru+2]` [complex 1], the “logKWF’ (warfarin displacement)” value [7] was 6.16 ± 0.03, the “logKDG’ (dansyl glycine displacement)” value [7] was 5.80 ± 0.03 and the “logKQ’ (Trp-214 quenching)” value ([7]; titration, site I) was 5.81 ± 0.03. The “MIC K. pneumoniae” value [1] was greater than 100 µM, the “MIC S. aureus” value [2] was 50 µM and the “MIC E. faecalis” value [3] was 100 µM. The “MIC E. coli” value [4] was greater than 100 µM, the IC50 [5] was 3.3 ± 1.3 µM and the “S.I. MRC-5/Colo 320” value [5] was 0.66. For the same compound, the IC50 [6] was 14 ± 0.62 µM and the “S.I. MRC-5/Colo 205” value [6] was 0.15.
